“Also recorded” adds a separate entry of the source. Like-named read-outs stand apart in the source and are kept apart here.
Experiments:
SVPD = test: Hydrolysis by SVPD (snake venom phosphodiesterase); type: in vitro ADME
Protocol: It is known that the enzyme SVPD preferentially cleaves Rp-3',5'- or 2',5'-phosphorothioate linkages from the 2'/3'-terminus. Nelson et al, J. Org. Chem. 49:2314-2317 (1984); Eppstein et al, J. Biol. Chem. 261:5999-6003 (1986); Lee et al, Biochemistry 24:551-555 (1985). SVPD hydrolysis of the chemically synthesized dimer core ARp A yielded adenosine and AMPS in a molar ratio of 1:1, respectively; the half-life was 3 hours (Table 3).
(§1) The metabolic stability of the 2,5'-phosphorothioate dimer and trimer cores is markedly greater than authentic 2-5A. The rate of hydrolysis of the trimer cores by the 3'-exonuclease SVPD is, in order of decreasing stability: ASp ARp A>ARp ARp A>>>A3. […] The 3'->'5'direction of stepwise cleavage by SVPD is blocked by an Sp configuration, preventing cleavage of the upstream adjacent phosphorothioate linkage. […] With both SVPD and 2'-PDE, the dimer cores (either ARp A or ASp A) accumulate following hydrolysis of the ARp ARp A, ASp ARp A and ARp ASp A trimer cores. Hydrolysis of the 2-5A molecule by SVPD and 2'-PDE proceeds from the 2'/3'-terminus. Therefore, introduction of the phosphorothioate group into the trimer core results in the accumulation of the ARp A or ASp A dimer cores from the 5'-terminus and the accumulation of AMPS from the 2'/3'-terminus (Table 3). With authentic A3, there is no detectable accumulation of A2 following hydrolysis by SVPD or 2'-PDE.

[1] = tested on: 2'-phosphodiesterase (2'-PDE), L cell extract; test: Hydrolysis by 2'-phosphodiesterase in L cell extract; type: in vitro ADME
Source text: The four 2,5-phosphorothioate adenylate trimer cores were further characterized by hydrolysis with the enzyme 2'-phosphodiesterase ("2'-PDE"), an exoribonuclease found in L cell extract The enzyme cleaves from the 2'/3'-terminus.
as §1

RNase L [2] = test: rRNA cleavage assay using L929 cell extracts (28S and 18S rRNA); type: biochemical, mouse; conditions: for concentration at which RNase L was activated to cleave 28S and 18S rRNA: L929 cell extracts, '>' = no activation at that concentration
Protocol: Activation of RNase L by 2',5'-phosphorothioate adenylate trimer cores and their 5'-monophosphates was also measured in an rRNA cleavage assay using L929 cell extracts.
The corresponding 5'-monophosphates pARp ARp A, pASp ARp A (at 10^-8 M) and pARp ASp A (at 10^-7 M) activated RNase L to cleave 28S and 18S rRNA.

[3] = tested on: HIV reverse transcriptase; test: HIV reverse transcriptase activity; type: biochemical, HIV (HTLV-IIIB); conditions: for Percent Inhibition of HIV reverse transcriptase / Reverse Transcriptase Activity: 200 uM; for Reverse Transcriptase Activity: control 187×10^3 cpm (reactions 1-4), 273×10^3 cpm (reactions 5-13)
Protocol: HIV reverse transcriptase (RNA-dependent DNA nucleotidyl-transferase) activity was assayed by a modification of the procedure of Poiesz et al. (Poiesz, B. J., Ruscetti , F. W., Gazdar, A. F., Bunn, P. S., Minna, J. D., and Gallo, R. C., Proc. Natl. Acad. Sci. U.S.A. 77: 7415-7419 (1980)).
Cultured H-9 cells are grown at 10^6 cells/ml in RPMI-1640 medium and 20% heat-inactivated fetal calf serum. Cell suspensions are centrifuged (1000×g, 10 min.) and the supernatant is removed. Virus particles are precipitated from this cell-free supernatant to which 0.3 ml of 4M NaCl and 3.6 ml of 30% (weight/volume) polyethylene glycol are added. The suspension is placed on ice for 2 hr following centrifugation at 15,000×g for 30 min at 0° C. The precipitate is resuspended in 200 microliters of 50% glycerol (vol./vol.)/25 mM Tris-HCl (pH 7.5)/5 mM dithiothreitol/50 mM KCl/0.025% Triton X-100. Virus particles are lysed by the addition of 100 microliters of 0.9% Triton X-100/1.5M KCl. Reverse transcriptase assays are performed at 37° C. for 1 hr with 10 microliters of the lysed virus solution in a final reaction volume of 100 microliters containing: 40 mM Tris-HCl (pH 7.8), 4 mM dithiothreitol, 45 mM KCl and 2.5 micrograms of template primer [poly(A)-dT15, 0.5 micrograms/microliter] (with a signal Mg^++ concentration of 10 mM). At this time, 10 microliters of the 2',5'-phosphorothioate oligoadenylate is added to a final concentration of 200 micromolar. Reaction mixtures also contain 4 micromoles of [^3 H]dTTP. Reactions are stopped by the addition of cold 5% trichloroacetic acid and filtered through nitrocellulose discs. The discs are dried and the radioactivity bound to the discs is determined. Reverse transcriptase activity is expressed as the percent relative to a control.
The compounds were assayed in the above manner in two sets, each set having a separate set of controls. The compounds of reactions 1-4 were assayed against control #1, which was 187×10^3 cpm. The compounds used in reactions 5-13 were assayed against control #2, which was 273×10^3 cpm.

[4] = tested on: tobacco mosaic virus (TMV); test: TMV replication in intact Nicotiana glutinosa plants (local lesions); type: in vivo; conditions: for Percent TMV Inhibition: 2 × 10^-5 M in infecting solution, 48 hr after infection, half-leaves of N. glutinosa
Protocol: Carborundum (400 mesh) was sprinkled lightly onto leaves. Solutions containing 0.2 micrograms per ml of TMV and 2×10^-5 M 2',5'-phosphorothioate oligoadenylate in phosphate buffer were applied onto half-leaves of N. glutinosa with either a gloved finger or with a pipettor. The remaining half-leaves were controls (inoculated with the buffer solution containing TMV, but no active compound). The infection was allowed to proceed 48 h under continuous illumination of about 1500 Lx at which time local virus lesions appeared. Inhibition of TMV replication was calculated as the percent of local lesions produced in 2',5'-phosphorothioate oligoadenylate-treated half-leaves compared to control half-leaves.
^4 Inhibition of TMV replication was detected 48 hr after infection
and was calculated as the percent of local lesions produced in treated
halfleaves of N. glutinosa compared to control halfleaves.

serum phosphodiesterases = test: Hydrolysis by serum phosphodiesterases
RNase L [5] = test: Activation or inhibition of RNase L, general statements without assay named; type: biochemical
phosphodiesterases = test: Metabolic stability, general statements; type: in vitro ADME
RNase L [6] = test: Core-cellulose assay: activation of partially-purified RNase L to hydrolyze poly(U)-3'-[32P]pCp; type: biochemical, mouse
Protocol: FIG. 1B represents the results of a core-cellulose assay indicating the ability of the 2',5'-phosphorothioate adenylate trimer cores and 5'-monophosphates to activate partially-purified RNase L from L929 cell extracts to hydrolyze the substrate polY(U)-3'-[^32 P]pCp. Activation of RNase L was determined by conversion of poly (U )-3'-[^32 P]pCp to acid-soluble fragments. 100% represents 30,000 cpm of labelled poly(U)-3'-[^32 P]pCp bound to glass fiber filters. The curves are labelled in the same manner as FIG. 1A.
The 2',5'-phosphorothioate cores, with one exception, have the correct stereoconfiguration to activate RNase L. The activation of partially-purified RNase L by the 2',5'-phosphorothioates was measured according to the core-cellulose assay of Silverman, Analyt. Biochem. 144:450-460 (1985) which relies on hydrolysis of the substrate poly(U)-3-[^32 P]pCp. […] (FIG. 1B) The order of activation of the trimer cores and the corresponding 5'-monophosphates is: RpRp>SpRp>RpSp (FIG. 1B).

Row | Compound | half life, hydrolysis by SVPD (SVPD) [h] | hydrolysis by SVPD (result in words) (SVPD) | concentration at which RNase L was activated to cleave 28S and 18S rRNA (RNase L [2]) | Percent Inhibition of HIV reverse transcriptase [3] [%] | Reverse Transcriptase Activity [3] | Percent TMV Inhibition [4] [%] | hydrolysis by serum phosphodiesterases (result in words) (serum phosphodiesterases) | effect on RNase L activation (result in words) (RNase L [5]) | hydrolysis by L cell extract / 2'-PDE (result in words) [1] | also measured
1 | (Sp)-P-Thioadenylyl-(2'-5')-(Rp)-P-thioadenylyl-(2'-5')-adenosine [Compound 9B] | 8 | yielded ASp A and AMPS | 10^-5 M | 6 | 258 10^3 cpm | 33 | not cleaved |  |  | half life, hydrolysis by L cell extract [1]: 15 h
2 | 5'-O-Phosphoryl-(Sp)-thioadenylyl-(2'-5')-(Sp)-thioadenylyl-(2'-5')-adenosine [pASp ASp A] |  |  | > 10^-5 M | 15 | 232 10^3 cpm | 40 |  | selectively inhibits activation of RNase L at physiological concentrations; also recorded: metabolically stable inhibitor of RNase L; also recorded: most effective inhibitor of RNase L reported to date |  | inhibition of HIV reverse transcriptase (result in words) [3]: inhibit HIV reverse transcriptase activity and tobacco mosaic virus replication; inhibition of TMV replication (result in words) ([4]; in vivo): inhibit HIV reverse transcriptase activity and tobacco mosaic virus replication; metabolic stability (result in words) (phosphodiesterases): metabolically stable to specific and non-specific phosphodiesterases
3 | (Sp)-P-Thioadenylyl-(2'-5')-(Sp)-P-thioadenylyl-(2'-5')-adenosine [Compound 10B] |  | not substrates for SVPD; also recorded: not cleaved | > 10^-4 M | 20 | 219 10^3 cpm | 80 | not cleaved | selectively inactivates RNase L | not cleaved | hydrolysis by SVPD (result in words) (SVPD; listed as ASp ASp A): not substrates of SVPD; hydrolysis by L cell extract / 2'-PDE (result in words) ([1]; listed as ASp ASp A): not cleaved by L-cell extract; inhibition of RNase L activation, core-cellulose assay (result in words) (RNase L [6]): inhibit RNase L activation; concentration up to which RNase L was not activated, core-cellulose assay (RNase L [6]; poly(U)-3'-[32P]pCp substrate, not activated at the concentration): > 10^-3 M; inhibition of RNase L activation, rRNA cleavage assay (result in words) (RNase L [2]): inhibit RNase L activation
4 | Nc1ncnc2c1ncn2[C@@H]1O[C@H](CO[P@@](O)(=S)O[C@@H]2[C@H](O)[C@@H](CO)O[C@H]2n2cnc3c(N)ncnc32)[C@@H](O)[C@H]1O [Compound 6A, P-Thioadenylyl-(2'-5')-adenosine] | 3 |  |  |  |  |  | not cleaved |  | not cleaved | hydrolysis by L cell extract / 2'-PDE (result in words) ([1]; listed as ARp A): not substrates for 2'-PDE
5 | (Sp)-P-thioadenylyl-(2'-5')-(Sp)-P-thioadenylyl-(2'-5')-(Sp)-P-thioadenylyl-(2'-5')-adenosine [ASp ASp ASp A] |  |  |  | 45 | 149 10^3 cpm | 70 |  |  |  | 
6 | 5'-O-Phosphoryl-(Sp)-thioadenylyl-(2'-5')-(Rp)-thioadenylyl-(2'-5')-adenosine [pASp ARp A] |  |  | 10^-8 M | 16 | 230 10^3 cpm | 23 |  |  |  | 
7 | (Rp)-P-thioadenylyl-(2'-5')-(Sp)-P-thioadenylyl-(2'-5')-(Sp)-P-thioadenylyl-(2'-5')-adenosine [ARp ASp ASp A] |  |  |  | 46 | 147 10^3 cpm | 80 |  |  |  | 
8 | (Rp)-P-Thioadenylyl-(2'-5')-(Rp)-P-thioadenylyl-(2'-5')-adenosine [Compound 9A] | 1 | hydrolysis by SVPD to yield AMPS plus ARp A | 10^-5 M | 18 | 224 10^3 cpm | 57 |  |  |  | half life, hydrolysis by L cell extract [1]: 18 h; half life, hydrolysis by serum phosphodiesterases (serum phosphodiesterases): 8 h
9 | Nc1ncnc2c1ncn2[C@@H]1O[C@H](CO[P@](O)(=S)O[C@@H]2[C@H](O)[C@@H](CO)O[C@H]2n2cnc3c(N)ncnc32)[C@@H](O)[C@H]1O [Compound 6B, P-Thioadenylyl-(2'-5')-adenosine] |  | not cleaved |  |  |  |  | not cleaved |  | not cleaved | hydrolysis by SVPD (result in words) (SVPD; listed as ASp A): not a substrate for SVPD; hydrolysis by L cell extract / 2'-PDE (result in words) ([1]; listed as ASp A): not substrates for 2'-PDE
10 | 5'-O-Phosphoryl-(Rp)-thioadenylyl-(2'-5')-(Sp)-thioadenylyl-(2'-5')-adenosine [pARp ASp A] |  |  | 10^-7 M | 25 | 206 10^3 cpm | 15 |  | relatively metabolically stable and highly efficient activator for RNase L |  | 

Source: patent US5556840A, “2',5'-phosphorothioate oligoadenylates as anitiviral agents” (Temple University - Of The Commonwealth System of Higher …, priority 1994, dated 1996)
